Reference: US20070275911A1, “Targeted Drug-Formaldehyde Conjugates and Methods of Making and Using the Same” (priority 2003, published 2007)
Read-outs that look alike come from different tables or passages of the source.

What was measured:
human AR = target: T1, human AR (Homo sapiens, UniProt P10275); assay: biochemical; type: binding
T1 construct: expressed in transfected cells; host or cells: PC3/AR cells (gift of Dr. Kerry Burnstein, University of Miami); cytosolic fraction of sonicated lysate
T1 sequence (P10275 1-920): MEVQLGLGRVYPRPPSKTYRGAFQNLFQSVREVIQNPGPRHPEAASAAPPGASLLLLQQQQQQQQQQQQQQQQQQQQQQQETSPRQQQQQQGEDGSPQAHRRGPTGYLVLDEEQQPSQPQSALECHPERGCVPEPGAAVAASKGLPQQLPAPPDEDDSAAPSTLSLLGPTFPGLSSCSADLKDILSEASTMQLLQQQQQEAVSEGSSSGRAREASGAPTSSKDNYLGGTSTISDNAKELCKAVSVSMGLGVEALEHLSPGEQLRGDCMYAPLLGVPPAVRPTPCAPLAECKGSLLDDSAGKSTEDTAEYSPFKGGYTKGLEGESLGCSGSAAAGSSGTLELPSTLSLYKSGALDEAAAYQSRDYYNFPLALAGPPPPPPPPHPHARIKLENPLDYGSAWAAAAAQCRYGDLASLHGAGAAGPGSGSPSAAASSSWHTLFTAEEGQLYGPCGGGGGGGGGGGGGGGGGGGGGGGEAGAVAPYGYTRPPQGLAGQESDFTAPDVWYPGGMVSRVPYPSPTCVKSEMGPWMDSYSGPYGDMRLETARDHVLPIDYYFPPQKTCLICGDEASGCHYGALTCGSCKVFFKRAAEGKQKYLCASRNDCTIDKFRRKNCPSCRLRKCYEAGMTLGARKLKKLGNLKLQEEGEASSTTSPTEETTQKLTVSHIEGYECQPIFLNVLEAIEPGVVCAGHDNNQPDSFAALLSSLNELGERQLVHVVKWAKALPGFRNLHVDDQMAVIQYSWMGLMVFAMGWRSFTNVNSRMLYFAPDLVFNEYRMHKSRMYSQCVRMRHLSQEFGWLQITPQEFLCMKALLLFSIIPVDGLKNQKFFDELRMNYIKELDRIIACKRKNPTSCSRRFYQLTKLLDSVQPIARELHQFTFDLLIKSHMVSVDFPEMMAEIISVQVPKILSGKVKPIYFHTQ

AR-GFP receptor = type: cell-based; details: for inhibition of the action of 1.0 nM Mibolerone on AR-GFP: co-treatment with 1.0 nM Mibolerone
Experimental: PC3 cells were, therefore, grown in 6 well plates and transiently transfected with a plasmid containing the AR-GFP construct obtained from Dr. Arun Roy (UTHSC; San Antonio, Tex.).
This cell suspension was dispensed in 2 mL aliquots into 6-well tissue culture plates. […] To each solution was added 2 μL of a 800 μg/mL solution of the pEGFP-C2 rcAR plasmid in Millipore water. After gentle mixing, the transfection cocktail was allowed to incubate at room temperature for 40 min. […] The growth medium was again replaced with 1 mL of phenol red-free RPMI supplemented with dextran-coated charcoal-stripped FBS. Candidate AR-GFP expressing cells in each well were identified and marked before an appropriate concentrations of the test compounds were added in 10 μL of sterile DMSO.

estrogen receptor = target: T2, estrogen receptor (Homo sapiens, UniProt P03372); assay: Estrogen receptor competitive binding assay (3H-E2, MCF-7 cell lysate); details: relative to E/Z-4-OHT = 100
T2 construct: endogenous in cells; host or cells: MCF-7 cells (ATCC); 225,000 g supernatant of sonicated lysate
T2 sequence (P03372 whole entry): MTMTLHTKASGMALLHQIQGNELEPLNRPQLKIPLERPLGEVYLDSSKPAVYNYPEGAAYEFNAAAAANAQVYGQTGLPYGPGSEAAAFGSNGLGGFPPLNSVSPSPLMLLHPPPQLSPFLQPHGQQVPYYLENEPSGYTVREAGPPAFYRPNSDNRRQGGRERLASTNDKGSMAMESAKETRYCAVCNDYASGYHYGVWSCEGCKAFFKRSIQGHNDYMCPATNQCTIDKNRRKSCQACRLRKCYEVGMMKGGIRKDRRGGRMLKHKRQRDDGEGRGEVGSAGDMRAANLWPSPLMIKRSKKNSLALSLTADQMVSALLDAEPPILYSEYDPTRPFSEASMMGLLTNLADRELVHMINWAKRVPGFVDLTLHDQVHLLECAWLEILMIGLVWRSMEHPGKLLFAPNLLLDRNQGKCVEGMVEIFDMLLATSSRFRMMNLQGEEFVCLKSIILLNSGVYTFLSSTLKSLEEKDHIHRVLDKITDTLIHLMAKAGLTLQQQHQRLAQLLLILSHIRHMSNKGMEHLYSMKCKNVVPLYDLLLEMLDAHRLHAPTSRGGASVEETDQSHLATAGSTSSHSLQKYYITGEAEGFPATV

PC3/AR and PC3/neo cells = details: for intracellular distribution of fluorescence over time: 3 h treatment / over time
Experimental: The fluorescence of doxorubicin can be monitored in order to determine the rate of uptake and intracellular distribution of the anthraquinone fluorophore.
This cell suspension was dispensed in 2 mL aliquots into 6-well tissue culture plates. Plates were then incubated for 36 h at 37° C. in a humidified atmosphere of 5% CO2 and 95% air. The medium was replaced with 1 mL of phenol red-free RPMI 1640 growth medium supplemented with 10% dextran-coated charcoal stripped FBS prior to addition of the test compound. The appropriate compound was dissolved in DMSO and the concentration was adjusted to 50-200 μM by measuring the solution absorbance at 480 nm. Addition of 10 μL of the appropriate doxorubicin or prodrug solution was followed by incubation at 37° C. as indicated. The drug solution in individual wells was removed at the appropriate time and the cells were washed with 1 mL of the phenol red-free growth medium. The washed cells were then supplemented with 1 mL of phenol-red free growth medium for imaging.

[1] = Hydrolysis of anthracycline-formaldehyde N-Mannich bases followed by HPLC; details: for stability under AR binding assay conditions: reaction buffer, 30 min incubation at 4° C., HPLC
Experimental: The area under the curve for the N-Mannich base was determined at each time point and was used to establish the kinetics of decomposition, using regression software. Hydrolysis of AOM-doxsaliform was carried out in pH 8.0 100 mM sodium phosphate buffer at 37° C. AOM-doxsaliform was dissolved in 48.0 μL DMSO and this solution was diluted into phosphate buffer to give 4.8 mL of an […] solution containing 1% DMSO. To this solution was added 6 μL of pig liver esterase (0.8 units/μL; Sigma; Milwaukee, Wis.) to achieve a final concentration of 1.0 units/mL. […] Brief centrifugation served to pellet the insoluble fraction. The drug solution was then transferred to a round bottom flask and concentrated by brief rotary-evaporation at 20° C. Reverse phase HPLC was used to analyze the extent of hydrolysis.
Hydrolysis of the N-Mannich bases, prepared from either doxorubicin or daunorubicin and the respective amides, at 37° C. in pH 7.4 triethylammonium acetate (TEAA) buffer (20 mM) containing 10-30% MeOH was monitored by reverse phase HPLC. […] Identification of a less robust construct that could be used to rapidly deliver the active Schiff base metabolite of doxorubicin to a growing tumor was undertaken.

[2] = vs 1.0 nM 3H-Mibolerone, PC3/AR cell lysate, 4° C. (Table 4, Example 3 numbering)
[3] = vs 1.0 nM 3H-Mibolerone, PC3/AR cell lysate, 4° C., 30 min (Table 3, Example 2 numbering)
[4] = relative binding affinity (Table 4, Example 3 numbering)

## CC1(C)NC(=O)N(c2ccc(C#N)c(C(F)(F)F)c2)C1=O [2f, 4-(4,4-Dimethyl-2,5-dioxo-imidazolidin-1-yl)-2-trifluoromethylbenzonitrile]
Human AR
  IC50: 6 nM
  RBA: 150
  RBA as fraction of nilutamide binding: 150%
AR-GFP receptor; concentration not given
  nuclear translocation of AR-GFP: induce partial translocation

## CCCC(=O)OCOc1ccc(COCC#CCN2C(=O)N(c3ccc(C#N)c(C(F)(F)F)c3)C(=O)C2(C)C)cc1C(N)=O [6b]
AR-GFP receptor; concentration not given
  nuclear translocation of AR-GFP: causing nuclear translocation of the AR upon binding

## CC1(C)C(=O)N(c2ccc(C#N)c(C(F)(F)F)c2)C(=O)N1CCOCCOCc1ccc(O)c(C(N)=O)c1 [8a, 5-(2-{2-[3-(4-Cyano-3-trifluoromethyl-phenyl)-5,5-dimethyl-2,4-dioxo-imidazolidin-1-yl]-ethoxy}-ethoxymethyl)-2-hydroxy-benzamide]
Human AR; [2]
  IC50: 77 nM
Human AR; [3]
  IC50: 77 nM

## CC1(C)C(=O)N(c2ccc(C#N)c(C(F)(F)F)c2)C(=O)N1CCOCCOCCOCc1ccc(O)c(C(N)=O)c1 [8b, 5-[2-(2-{2-[3-(4-Cyano-3-trifluoromethyl-phenyl)-5,5-dimethyl-2,4-dioxo-imidazolidin-1-yl]-ethoxy}-ethoxy)-ethoxymethyl]-2-hydroxy-benzamide]
Human AR; [2]
  IC50: 332 nM
Human AR; [3]
  IC50: 332 nM

## CC1(C)C(=O)N(c2ccc(C#N)c(C(F)(F)F)c2)C(=O)N1CC#CCOCc1ccc(O)c(C(N)=O)c1 [8c, 5-{4-[3-(4-Cyano-3-trifluoromethyl-phenyl)-5,5-dimethyl-2,4-dioxo-imidazolidin-1-yl]-but-2-ynyloxymethyl}-2-hydroxy-benzamide]
Human AR; [3]
  IC50: 49 nM

## CCC(=C(c1ccc(O)cc1)c1ccc(OCCN(C)CCON=Cc2ccc(O)c(C(N)=O)c2)cc1)c1ccccc1 [10a]
Estrogen receptor
  RBA^OHT: 1.7

## CCC(=C(c1ccc(O)cc1)c1ccc(OCCN(C)CCOCCON=Cc2ccc(O)c(C(N)=O)c2)cc1)c1ccccc1 [10b, E/Z-2-Hydroxy-5-[(2-{2-[(2-{4-[1-(4-hydroxy-phenyl)-2-phenyl-but-1-enyl]-phenoxy}-ethyl)-methyl-amino]-ethoxy}-ethoxyimino)-methyl]-benzamide]
Estrogen receptor
  RBA^OHT: 3.3

## CCC(=C(c1ccc(O)cc1)c1ccc(OCCN(C)CCOCCOCCON=Cc2ccc(O)c(C(N)=O)c2)cc1)c1ccccc1 [10c]
Estrogen receptor
  RBA^OHT: 3.3

## CC1(C)C(=O)N(c2ccc(C#N)c(C(F)(F)F)c2)C(=O)N1CCCCN1CCN(CCOCc2ccc(O)c(C(N)=O)c2)CC1 [12a, 5-[2-(4-{4-[3-(4-Cyano-3-trifluoromethyl-phenyl)-5,5-dimethyl-2,4-dioxo-imidazolidin-1-yl]-butyl}-piperazin-1-yl)-ethoxymethyl]-2-hydroxy-benzamide]
Human AR
  RBA: <1
Human AR; [4]
  RBA: <1
Human AR; [2]
  IC50: > 1000 nM
AR-GFP receptor
  inhibition of the action of 1.0 nM Mibolerone on AR-GFP: not capable of inhibiting the action of 1.0 nM Mibolerone
AR-GFP receptor; concentration not given
  nuclear translocation of AR-GFP: does not instigate translocation

## CC1(C)C(=O)N(c2ccc(C#N)c(C(F)(F)F)c2)C(=O)N1CCOCCN1CCN(CCOCc2ccc(O)c(C(N)=O)c2)CC1 [12b]
Human AR
  RBA: 3
Human AR; [4]
  RBA: 3
Human AR; [2]
  IC50: 346 nM
Human AR; [3]
  IC50: 346 nM
AR-GFP receptor
  inhibition of the action of 1.0 nM Mibolerone on AR-GFP: not capable of inhibiting the action of 1.0 nM Mibolerone
AR-GFP receptor; concentration not given
  nuclear translocation of AR-GFP: does not instigate translocation

## COc1cccc2c1C(=O)c1c(O)c3c(c(O)c1C2=O)C[C@@](O)(C(=O)CO)C[C@@H]3O[C@H]1C[C@H](NCNC(=O)c2ccccc2OCOC(C)=O)[C@H](O)[C@H](C)O1 [AOM-doxsaliform, N-[(2-Acetoxymethyloxy)-benzamidomethyl]-doxorubicin]
PC3/AR and PC3/neo cells
  intracellular distribution of fluorescence over time: accumulate, at least to some extent over time (>3 h), in the nuclei
[1]; 37° C., pH 7.3 RPMI 1640, 3 h of observation
  release of doxorubicin from acetoxymethylene-protected derivative: no hydrolysis was evident

## C[C@@H]1CC2=CC(=O)CC[C@@H]2[C@H]2CC[C@@]3(C)[C@@H](CC[C@]3(C)O)[C@@H]21 [Mibolerone, reference compound]
AR-GFP receptor; 1.0 nM
  nuclear translocation of AR-GFP: causes nuclear translocation of the AR-GFP receptor

## CCCC(=O)OCOc1ccc(COCC#CCN2C(=O)N(c3ccc(C#N)c(C(F)(F)F)c3)C(=O)C2(C)C)cc1C(=O)NCNC1CC(OC2CC(O)(C(=O)CO)Cc3c(O)c4c(c(O)c32)C(=O)c2c(OC)cccc2C4=O)OC(C)C1O (stereo not shown) [compound 10, N-(5-{4-[3-(4-Cyano-3-trifluoromethyl-phenyl)-5,5-dimethyl-2,4-dioxo-imidazolidin-1-yl]-but-2-ynyloxymethyl}-2-butyryloxymethoxybenzamidomethyl)-doxorubicin]
Human AR; [4]
  RBA: 14
Human AR; [2]
  IC50: 63 nM
PC3/AR and PC3/neo cells
  intracellular distribution of fluorescence over time: remains primarily cytosolic over time
PC3/AR and PC3/neo cells; upon initial treatment, 500 nM
  initial intracellular distribution of fluorescence: predominantly cytosolic
AR-GFP receptor; 1.0 μM (up to)
  nuclear translocation of AR-GFP: did not instigate translocation into the nucleus
AR-GFP receptor
  inhibition of the action of 1.0 nM Mibolerone on AR-GFP: did serve to inhibit the action of 1.0 nM Mibolerone
[1]
  stability under AR binding assay conditions: stable under the assay conditions

## COc1cccc2c1C(=O)c1c(O)c3c(c(O)c1C2=O)C[C@@](O)(C(=O)CO)C[C@@H]3OC1C[C@H](NCNC(=O)c2cc(COCC#CCN3C(=O)N(c4ccc(C#N)c(C(F)(F)F)c4)C(=O)C3(C)C)ccc2O)[C@H](O)[C@H](C)O1 (stereo partly shown) [compound 13, N-(5-{4-[3-(4-Cyano-3-trifluoromethyl-phenyl)-5,5-dimethyl-2,4-dioxo-imidazolidin-1-yl]-but-2-ynyloxymethyl)-2-hydroxy-benzamidomethyl)-doxorubicin]
Human AR
  IC50: 90 nM
  RBA: 10
Human AR; [4]
  RBA: 10
PC3/AR and PC3/neo cells
  intracellular distribution of fluorescence over time: primarily localized to the nucleus
[1]
  stability under AR binding assay conditions: no appreciable hydrolysis
[1]; listed as 9
  stability under AR binding assay conditions: stable under the assay conditions
